Values quoted from earlier work, collected in paper PMC3242598, “Phase I study of BIBF 1120 with docetaxel and prednisone in metastatic chemo-naive hormone-refractory prostate cancer patients” (British Journal of Cancer, 2011).

Key:
VEGFR = test system: VEGFR; design: method as in Hilberg et al, 2008; details: after a 1-h exposure; ref Hilberg et al, 2008; cited from earlier work
[1] = design: method as in Mross et al, 2010; details: monotherapy phase I; ref Mross et al, 2010; cited from earlier work

COC(=O)c1ccc2c(c1)NC(=O)/C2=C(\Nc1ccc(N(C)C(=O)CN2CCN(C)CC2)cc1)c1ccccc1 [BIBF 1120]
Duration of block of VEGFR activation (VEGFR): > 32 h | t1/2 [1]: ~15 h
